Results: US6559137B1 (priority 1997, dated 2003)
Like-named read-outs stand apart in the source and are kept apart here.

What was measured:
[1] = both, Sprague-Dawley, rat, in vivo, po
[2] = dog, in vivo, po
in vivo = conditions: both, Sprague-Dawley, rat, po

CC(C)CN(C[C@@H](O)[C@H](Cc1ccccc1)NC(=O)O[C@H]1CCOC1)S(=O)(=O)c1ccc(N)cc1 [VX-478]
AUC [1]: 16.2 ± 1.8 µg·h/mL
AUC [2]: 23.5 ± 7.4 µg·h/mL
Cmax [2]: 6.8 ± 1.1 µg/mL
Tmax [2]: 1.0 ± 0.8 h
AUC (in vivo): 29600 ± 5800 ng·h/mL
